The record followed here is PubChem BioAssay (NCI).

Each structure is given as a SMILES string.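 Step 1: Grow cells in 96-well plates. Step 2: Expose to compound for 48 hours at 5 concentrations. Step 3: Interpolate endpoints linearly; if unreached, use highest concentration. TGI: total growth inhibition.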

Among the test systems are MALME-3M melanoma; MOLT-4 leukemia; SW-620 colon; PC-3 prostate; SN12C renal; NCI-H23 lung; OVCAR-3 ovarian; SF-268 CNS; SNB-19 CNS; SK-OV-3 ovarian.
Assay in all cases: NCI anticancer screen, dose series, 48 h

Consider `CC(=O)O[C@H]1CC[C@@]2(C)C(=CC[C@@H]3[C@@H]2CC[C@]2(C)c4nc(Cl)ccc4C[C@@H]32)C1`, for which the TGI in the experiment on MALME-3M melanoma was over 100 µM; with MOLT-4 leukemia, over 100 µM; in the experiment on SW-620 colon, over 100 µM; in the experiment with PC-3 prostate, over 100 µM; in the experiment on SN12C renal it was over 100 µM; with NCI-H23 lung, 19.4 µM. In addition, the TGI is 69.8 µM in the experiment with OVCAR-3 ovarian, over 100 µM in the experiment with SF-268 CNS, over 100 µM in the experiment on SNB-19 CNS and over 100 µM in the experiment on SK-OV-3 ovarian.

In the case of `CSc1c(C#N)c(N)n(-c2ccc(Cl)cc2)c(=O)c1C#N`, the TGI in the experiment on MALME-3M melanoma, with MOLT-4 leukemia, in the experiment on SW-620 colon, in the experiment on PC-3 prostate, in the experiment with SN12C renal and with NCI-H23 lung was over 100 µM each time. In addition, the TGI with OVCAR-3 ovarian, in the experiment with SF-268 CNS, in the experiment on SNB-19 CNS and with SK-OV-3 ovarian was over 100 µM throughout.

Regarding `OC(c1cccnc1Cl)c1nc2ccccc2c2ccnc(Cl)c12` (stereo not drawn), the TGI in the experiment on MALME-3M melanoma is 78.2 µM; in the experiment on MOLT-4 leukemia it was over 100 µM; in the experiment with SW-620 colon, over 100 µM; in the experiment with PC-3 prostate, 69.1 µM; in the experiment with SN12C renal it was 45.8 µM; in the experiment on NCI-H23 lung, over 100 µM. Besides, the TGI is over 100 µM in the experiment on OVCAR-3 ovarian, over 100 µM in the experiment on SF-268 CNS, over 100 µM with SNB-19 CNS and 63.4 µM in the experiment with SK-OV-3 ovarian.

Take `COC(=O)C(=O)Cc1nc2ccccc2o1`: the TGI in the experiment with MALME-3M melanoma, in the experiment on MOLT-4 leukemia, in the experiment on SN12C renal, in the experiment on NCI-H23 lung, with OVCAR-3 ovarian and with SF-268 CNS was over 100 µM in each case. The TGI in the experiment with SNB-19 CNS and in the experiment with SK-OV-3 ovarian was over 100 µM throughout.

In the case of `O=C(O)c1ccccc1N=Nc1c(O)c(S(=O)(=O)O)cc2cc(S(=O)(=O)O)ccc12`, the TGI with MOLT-4 leukemia, in the experiment with SW-620 colon, with PC-3 prostate, with SN12C renal, in the experiment with NCI-H23 lung and in the experiment with OVCAR-3 ovarian was over 100 µM throughout. In addition, the TGI in the experiment with SF-268 CNS, in the experiment with SNB-19 CNS and with SK-OV-3 ovarian was over 100 µM in each case.

Take `N#CCCC1(CCC#N)CCCCCCCCC(CCC#N)(CCC#N)C(O)C1O` (stereo not drawn): the TGI in the experiment with MALME-3M melanoma, in the experiment with SW-620 colon, in the experiment with PC-3 prostate, in the experiment with SN12C renal, in the experiment on NCI-H23 lung and with OVCAR-3 ovarian was over 100 µM each time. Further, the TGI in the experiment on SF-268 CNS, in the experiment with SNB-19 CNS and with SK-OV-3 ovarian was over 100 µM in each case.

For the compound `O=NN(CCF)C(=O)NC1CCSCC1`, the TGI with MALME-3M melanoma, in the experiment on MOLT-4 leukemia, in the experiment on SW-620 colon, with SN12C renal, with NCI-H23 lung and with OVCAR-3 ovarian was over 100 µM throughout. Further, the TGI in the experiment with SF-268 CNS, in the experiment on SNB-19 CNS and in the experiment on SK-OV-3 ovarian was over 100 µM throughout.

For the compound `Nc1ncnc2c1ncn2[C@@H]1O[C@H](COC(c2ccccc2)(c2ccccc2)c2ccccc2)[C@@H](OC(=S)Oc2ccccc2)[C@@H]1F`, the TGI in the experiment on MOLT-4 leukemia is 5.98 µM; with SW-620 colon it was 29.7 µM; in the experiment on PC-3 prostate it was 15.2 µM; with SN12C renal it was 15.1 µM; in the experiment on NCI-H23 lung, 16 µM; with OVCAR-3 ovarian, 18.4 µM. For the same compound, the TGI in the experiment on SF-268 CNS was 12.4 µM; in the experiment on SNB-19 CNS, 27.7 µM; in the experiment on SK-OV-3 ovarian, 30.8 µM.

On to `CN=C(Nc1cccc(C(F)(F)F)c1)SCc1ccc(N=C=S)cc1`, for which the TGI in the experiment on MALME-3M melanoma was found to be 27.8 µM; with MOLT-4 leukemia, 36 µM; in the experiment on SW-620 colon it was 41 µM; in the experiment on PC-3 prostate, 29.4 µM; with SN12C renal, 26.9 µM; in the experiment on NCI-H23 lung it was 31.4 µM. Moreover, the TGI with SF-268 CNS came to 73.3 µM; in the experiment on SNB-19 CNS, 28.1 µM; in the experiment on SK-OV-3 ovarian, 34.5 µM.

Take `COc1cccc(C2c3cc4c(cc3OC3COC(=O)C32)OCO4)c1OC` (stereo not drawn): the TGI with MALME-3M melanoma, in the experiment on MOLT-4 leukemia, in the experiment on SW-620 colon, with PC-3 prostate, in the experiment on SN12C renal and in the experiment on OVCAR-3 ovarian was over 100 µM throughout. Besides, the TGI in the experiment on SF-268 CNS, with SNB-19 CNS and with SK-OV-3 ovarian was over 100 µM each time.

For `COc1cc(CNc2nc3ccccc3nc2C(=O)O)cc(OC)c1OC`, the TGI in the experiment on MALME-3M melanoma, in the experiment with MOLT-4 leukemia, in the experiment with SW-620 colon, with PC-3 prostate, in the experiment with SN12C renal and in the experiment with NCI-H23 lung was over 100 µM in each case. For the same compound, the TGI in the experiment on OVCAR-3 ovarian, in the experiment on SF-268 CNS and in the experiment with SK-OV-3 ovarian was over 100 µM throughout.

`CN1CCN(P2(=S)Oc3ccc4ccccc4c3-c3c(ccc4ccccc34)O2)CC1`: the TGI in the experiment with MALME-3M melanoma is 50.8 µM; in the experiment on MOLT-4 leukemia it was 46.2 µM; in the experiment on SW-620 colon, over 100 µM; in the experiment with SN12C renal it was over 100 µM; with NCI-H23 lung, over 100 µM; in the experiment on OVCAR-3 ovarian, over 100 µM. Further, the TGI in the experiment on SF-268 CNS, in the experiment with SNB-19 CNS and in the experiment with SK-OV-3 ovarian was over 100 µM each time.

On to `CC[C@@]1(O)C(=O)OCc2c1cc1n(c2=O)Cc2c-1nc1ccccc1c2/C=N\NC(=O)C(N)CCSC` (stereo partly drawn), for which the TGI with MALME-3M melanoma is 14.5 µM; with SW-620 colon it was over 41.1 µM; in the experiment on PC-3 prostate, over 100 µM; with SN12C renal it was 0.925 µM; with NCI-H23 lung, 0.0526 µM; with OVCAR-3 ovarian, 3.08 µM. Also, the TGI was 1.55 µM with SF-268 CNS, 0.722 µM in the experiment with SNB-19 CNS and 7.73 µM with SK-OV-3 ovarian.

Take `Cn1c(=O)n2n(c1=O)C(C)(C13CC4CC(CC(C4)C1)C3)C13CC4CC(CC1C4)CC23` (stereo not drawn): the TGI with MOLT-4 leukemia, in the experiment with SW-620 colon, in the experiment on PC-3 prostate, with SN12C renal, in the experiment on NCI-H23 lung and with OVCAR-3 ovarian was over 100 µM each time. In addition, the TGI in the experiment on SF-268 CNS, in the experiment on SNB-19 CNS and with SK-OV-3 ovarian was over 100 µM each time.
